ChEMBL document CHEMBL5500396, “Discovery, Multiparametric Optimization, and Solid-State Driven Identification of CHF-6550, a Novel Soft Dual Pharmacology Muscarinic Antagonist and β2 Agonist (MABA) for the Inhaled Treatment of Respiratory Diseases” (J Med Chem, 2024)

Legend:
[1] = molecular target: Beta-2 adrenergic receptor (Homo sapiens, UniProt P07550)
Description: Displacement of [125I]-Cyanopindolol from human beta2 adrenoceptor assessed as inhibition constant incubated for 1 hrs by Microbeta scintillation counter

in vitro [2] = details: human, hepatocytes
Description: Metabolic stability in human hepatocytes assessed as clearance measured per 10^6 cells at 1 uM incubated for 90 mins by LC-MS/MS analysis

in vitro [3] = details: rat, hepatocytes
Description: Metabolic stability in rat hepatocytes assessed as clearance measured per 10^6 cells at 1 uM incubated for 90 mins by LC-MS/MS analysis

in vitro [4] = details: human, plasma
Description: Stability in human plasma assessed as half-life at 5 uM incubated for 120 mins by LC-MS/MS analysis

in vitro [5] = details: rat, plasma
Description: Stability in rat plasma assessed as half-life at 5 uM incubated for 120 mins by LC-MS/MS analysis

in vitro [6] = details: guinea pig, plasma
Description: Stability in guinea pig plasma assessed as half-life at 5 uM incubated for 120 mins by LC-MS/MS analysis

[7] = molecular target: Muscarinic acetylcholine receptor M3 (Homo sapiens, UniProt P20309)
Chain of Muscarinic acetylcholine receptor M3 (P20309 whole entry): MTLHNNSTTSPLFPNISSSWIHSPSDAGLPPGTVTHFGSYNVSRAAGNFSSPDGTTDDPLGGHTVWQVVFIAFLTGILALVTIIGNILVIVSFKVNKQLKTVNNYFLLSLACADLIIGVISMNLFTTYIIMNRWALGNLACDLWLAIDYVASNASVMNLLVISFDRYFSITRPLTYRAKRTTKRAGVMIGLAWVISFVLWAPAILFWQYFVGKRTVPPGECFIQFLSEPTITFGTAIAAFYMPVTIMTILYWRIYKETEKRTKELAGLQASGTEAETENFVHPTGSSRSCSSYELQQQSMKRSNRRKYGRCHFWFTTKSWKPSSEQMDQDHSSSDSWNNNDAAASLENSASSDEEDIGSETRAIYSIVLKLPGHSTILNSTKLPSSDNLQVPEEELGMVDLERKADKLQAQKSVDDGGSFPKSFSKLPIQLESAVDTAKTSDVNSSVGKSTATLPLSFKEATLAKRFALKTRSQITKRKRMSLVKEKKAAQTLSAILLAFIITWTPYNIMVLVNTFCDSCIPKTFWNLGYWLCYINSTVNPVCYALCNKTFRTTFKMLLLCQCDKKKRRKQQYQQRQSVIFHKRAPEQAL
Description: Displacement of Scopolamine methyl chloride,[N-methyl-3H] from human muscarinic M3 receptor assessed as inhibition constant incubated for 2 hrs by Microbeta scintillation counter

Chain of Beta-2 adrenergic receptor (P07550 whole entry): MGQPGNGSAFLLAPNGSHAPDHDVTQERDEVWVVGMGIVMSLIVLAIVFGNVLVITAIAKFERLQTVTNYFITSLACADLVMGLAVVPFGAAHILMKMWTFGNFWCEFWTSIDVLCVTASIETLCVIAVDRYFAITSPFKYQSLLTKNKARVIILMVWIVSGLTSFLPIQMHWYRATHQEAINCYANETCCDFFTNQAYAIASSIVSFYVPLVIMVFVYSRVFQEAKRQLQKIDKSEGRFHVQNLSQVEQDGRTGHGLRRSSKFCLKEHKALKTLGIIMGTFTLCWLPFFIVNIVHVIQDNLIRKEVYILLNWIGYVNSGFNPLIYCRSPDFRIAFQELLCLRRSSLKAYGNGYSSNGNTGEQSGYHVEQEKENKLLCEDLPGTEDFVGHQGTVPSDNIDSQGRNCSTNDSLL

SMILES	Ki [1] [nM]	hepatocyte CLint at 1.5 h, 1 µM (in vitro [2]) [µL/min/1e6 cells]	hepatocyte CLint at 1.5 h, 1 µM (in vitro [3]) [µL/min/1e6 cells]	half-life at 2 h, 5 µM (in vitro [4]) [min]	half-life at 2 h, 5 µM (in vitro [5]) [min]	half-life at 2 h, 5 µM (in vitro [6]) [min]	Ki [7] [nM]
COc1cc(C(=O)NCCCOc2cccc([C@](O)(C(=O)O[C@@H]3CCCN(C)C3)c3ccccc3)c2)c(F)cc1CNC[C@H](O)c1ccc(O)c2[nH]c(=O)ccc12	0.0158	7	40	> 150	87	> 150	
O=C(NCCCOc1cccc([C@](O)(C(=O)O[C@@H]2CCN(Cc3ccccc3)C2)c2ccccc2)c1)c1ccc(CNC[C@H](O)c2ccc(O)c3[nH]c(=O)ccc23)cc1	0.158	23	69	> 150	5	37	
CN1CCC[C@@H](OC(=O)[C@](O)(c2ccccc2)c2cccc(OCCCNC(=O)c3cnc(CNC[C@H](O)c4ccc(O)c5[nH]c(=O)ccc45)nc3)c2)C1.O=CO	0.0251	< 2	33	> 150	13	8	
CN1CCC(COC(=O)[C@](O)(c2ccccc2)c2cccc(OCCCNC(=O)c3ccc(CNC[C@H](O)c4ccc(O)c5[nH]c(=O)ccc45)cc3)c2)CC1	0.0398	< 2	15	> 150	115	11	0.501
O=C(NCCCCNC[C@H](O)c1ccc(O)c2[nH]c(=O)ccc12)c1ccc(C(=O)N2CCC(C(=O)O[C@H]3CN4CCC3CC4)(c3ccccc3)CC2)cc1	0.631						1.58
CN1CCC[C@H](OC(=O)[C@](O)(c2ccccc2)c2cccc(OCCCNC(=O)c3ccc(CNC[C@H](O)c4ccc(O)c5[nH]c(=O)ccc45)cc3)c2)C1.O=CO.O=CO	0.0251	5	52	> 150	8	51	
O=C(NCCCOc1cccc([C@](O)(C(=O)O[C@H]2CCN(Cc3ccccc3)C2)c2ccccc2)c1)c1ccc(CNC[C@H](O)c2ccc(O)c3[nH]c(=O)ccc23)cc1	0.398	22	71	> 150	15	12	
O=C(NCCCOc1cccc([C@](O)(C(=O)OC[C@H]2CCN(Cc3ccccc3)C2)c2ccccc2)c1)c1ccc(CNC[C@H](O)c2ccc(O)c3[nH]c(=O)ccc23)cc1	0.126	7	38	> 128	32	56	
O=C(NCCCOc1cccc([C@](O)(C(=O)OC2CCN(Cc3ccccc3)CC2)c2ccccc2)c1)c1ccc(CNC[C@H](O)c2ccc(O)c3[nH]c(=O)ccc23)cc1	0.0501	12	64	> 150	135	8	
O=C(c1ccc(CNC[C@H](O)c2ccc(O)c3[nH]c(=O)ccc23)cc1)N1CC(COc2cccc([C@](O)(C(=O)OCC3CCN(Cc4ccccc4)CC3)c3ccccc3)c2)C1	1	16	22	> 150	50	19	1.26
CN1CCC(COC(=O)[C@](O)(c2ccccc2)c2cccc(-c3ccc(CNC(=O)c4ccc(CNC[C@H](O)c5ccc(O)c6[nH]c(=O)ccc56)cc4)s3)c2)CC1	0.398	27	21	> 150	88	48	2.51
COc1cc(C(=O)NCCCOc2cccc([C@](O)(C(=O)O[C@@H]3CCCN(C)C3)c3ccccc3)c2)c(Cl)cc1CNC[C@H](O)c1ccc(O)c2[nH]c(=O)ccc12	0.0251	6	36	> 150	54	133	
COc1cc(C(=O)NCCCOc2cccc([C@](O)(C(=O)O[C@@H]3CCCN(C)C3)c3ccccc3)c2)ccc1CNC[C@H](O)c1ccc(O)c2[nH]c(=O)ccc12	0.0158	4	29	> 150	17	112	
O=C(NCCCOc1cccc([C@](O)(C(=O)OCC2CCN(C3CCC3)CC2)c2ccccc2)c1)c1ccc(CNC[C@H](O)c2ccc(O)c3[nH]c(=O)ccc23)cc1	0.0251	6	38	> 150	19	119	1
COc1cc(CNC[C@H](O)c2ccc(O)c3[nH]c(=O)ccc23)c(Cl)cc1C(=O)NCCCOc1cccc([C@](O)(C(=O)O[C@@H]2CCCN(C)C2)c2ccccc2)c1	0.1	7	66	> 150	130	> 150	
COc1cc(C(=O)N2CCC(c3cccc([C@](O)(C(=O)OCC4CCN(Cc5ccccc5)CC4)c4ccccc4)c3)CC2)ccc1CNC[C@H](O)c1ccc(O)c2[nH]c(=O)ccc12	0.501	28	29	> 150	> 150	35	0.631
O=C(c1ccc(OCc2ccc(CNC[C@H](O)c3ccc(O)c4[nH]c(=O)ccc34)cc2)cc1)N1CC(C(=O)OCC2CCN(Cc3ccccc3)CC2)(c2ccccc2)C1	0.251						7.94
CN1CCC[C@@H](OC(=O)[C@](O)(c2ccccc2)c2cccc(OCCCNC(=O)c3ccc(CNC[C@H](O)c4ccc(O)c5[nH]c(=O)ccc45)nc3)c2)C1.O=CO.O=CO	0.0251	< 2	20	> 150	17	> 150	
CN1CCC(COC(=O)[C@@](O)(c2ccccc2)c2cccc(-c3ccc(CNC(=O)c4ccc(CNC[C@H](O)c5ccc(O)c6[nH]c(=O)ccc56)cc4)s3)c2)CC1	1	3	13	> 150	> 150	9	0.158
O=C(NCCCOc1cccc([C@](O)(C(=O)O[C@H]2CCCN(Cc3ccccc3)C2)c2ccccc2)c1)c1ccc(CNC[C@H](O)c2ccc(O)c3[nH]c(=O)ccc23)cc1.O=CO	0.501	19	53	> 150	11	15	
O=C(NCCCOc1cccc([C@](O)(C(=O)O[C@@H]2CCCN(Cc3ccccc3)C2)c2ccccc2)c1)c1ccc(CNC[C@H](O)c2ccc(O)c3[nH]c(=O)ccc23)cc1.O=CO	0.316	20	78	> 150	5	> 150	
O=C(NCCCOc1cccc([C@](O)(C(=O)OC[C@@H]2CCN(Cc3ccccc3)C2)c2ccccc2)c1)c1ccc(CNC[C@H](O)c2ccc(O)c3[nH]c(=O)ccc23)cc1	0.0794	5	37	> 150	15	58	
O=C(NCCCOc1cccc([C@](O)(C(=O)OCC2CCN(C3CCCC3)CC2)c2ccccc2)c1)c1ccc(CNC[C@H](O)c2ccc(O)c3[nH]c(=O)ccc23)cc1	0.02	5	51	> 150	14	139	1.58
Cc1cc(C(=O)NCCCOc2cccc([C@](O)(C(=O)O[C@@H]3CCCN(C)C3)c3ccccc3)c2)c(C)cc1CNC[C@H](O)c1ccc(O)c2[nH]c(=O)ccc12	0.0158	3	49	> 150	30	142	
CN1CCC[C@@H](OC(=O)[C@](O)(c2ccccc2)c2cccc(OCCCNC(=O)c3cccc(CNC[C@H](O)c4ccc(O)c5[nH]c(=O)ccc45)c3)c2)C1	2	5	28	> 150	8	98	
COc1cc(C(=O)NCCCOc2cccc([C@](O)(C(=O)O[C@@H]3CCCN(C)C3)c3ccccc3)c2)c(OC)cc1CNC[C@H](O)c1ccc(O)c2[nH]c(=O)ccc12	0.0631	6	61	> 150	> 150	> 150	
CN1CCC[C@@H](OC(=O)[C@](O)(c2ccccc2)c2cccc(OCCCNC(=O)c3ccc(CNC[C@H](O)c4ccc(O)c5[nH]c(=O)ccc45)c(F)c3)c2)C1.O=CO	0.0126	6	54	> 150	15	84	
O=C(NCCCCNC[C@H](O)c1ccc(O)c2[nH]c(=O)ccc12)c1ccc(C(=O)NC2(C(=O)O[C@H]3CN4CCC3CC4)CCc3ccccc32)cc1 (single isomer, unassigned)	0.398						> 50.1
O=C(NCCCCNC[C@H](O)c1ccc(O)c2[nH]c(=O)ccc12)c1cccc(C(=O)NC2(C(=O)O[C@H]3CN4CCC3CC4)CCc3ccccc32)c1 (single isomer, unassigned)	1.58						12.6
